Reference: patent EP1561465A2, “Methods of use of fluoroquinolone compounds against bacteria” (LG Life Sciences, Ltd., priority 1999, dated 2001)
Converted amounts (≈) assume the structure as drawn. “And” between values parts separate entries of the source, which are not always exact repeats. Equal values may be shown once. Read-outs that look alike come from different tables or passages of the source.

Legend:
Salmonella spp. [1] = experiment: MIC by agar dilution (NCCLS M7-A4), 288 enteropathogenic isolates, eight quinolones; type: cell-based
Hafnia alvei [2] = experiment: as above; type: cell-based
Yersinia enterocolitica [3] = experiment: as above; type: cell-based
Shigella spp. [4] = experiment: as above; type: cell-based
Aeromonas spp. [5] = experiment: as above; type: cell-based
Campylobacter jejuni [6] = experiment: MIC by agar dilution (NCCLS M7-A4), 5% sheep blood, microaerophilic 48 h; type: cell-based
Salmonella spp. [7] = experiment: MIC by agar dilution (NCCLS M7-A4), 288 enteropathogenic isolates, gemifloxacin and 15 other antimicrobials; type: cell-based
Hafnia alvei [8] = experiment: as above; type: cell-based; settings: Hafnia alvei
Yersinia enterocolitica [9] = experiment: as above; type: cell-based; settings: Yersinia enterocolitica
Shigella spp. [10] = experiment: as above; type: cell-based; settings: Shigella spp. N= 21
Procedure: [A. hydrophila (12), and A. sobria (4)], and 91 Campylobacter jejuni. […] The strains were stored in skimmed-milk at -80 °C until studied.
The plates were incubated aerobically at 35 °C for 24 h, except for Campylobacter jejuni, where a microaerophilic atmosphere was obtained by using Campy Pack (Becton Dickinson, Cockeysville, MD, USA), and incubation was for 48 h. All organisms were tested with an inoculum of ≅ 10^4 cfu/spot. MICs were defined as the lower antibiotic concentration with no visible growth.

Aeromonas spp. [11] = experiment: as above; type: cell-based; settings: for MIC: Aeromonas
Campylobacter jejuni [12] = experiment: as above; settings: Campylobacter jejuni
Escherichia coli = experiment: MIC by agar dilution (NCCLS), 322 nosocomial Gram negative isolates, Athens 1998; type: cell-based; settings: n = 57 isolates
Klebsiella pneumoniae = experiment: as above; type: cell-based; settings: Klebsiella pneumoniae; n = 56 isolates
Proteus mirabilis = experiment: as above; type: cell-based; settings: Proteus mirabilis; n = 57 isolates
Enterobacter spp. = experiment: as above; type: cell-based; settings: Enterobacter, n = 57 isolates
Acinetobacter spp. = experiment: as above; type: cell-based; settings: Acinetobacter; n = 38 strains
[13] = 24 h, read-out: MIC (mg/L) Range

## CCn1cc(C(=O)O)c(=O)c2ccc(C)nc21 [Nalidixic acid, nalidixic acid]
Salmonella spp. [1]
  MIC: > 128 µg/mL
Salmonella spp. [1]; Salmonella
  MIC: > 128 µg/mL
  MIC50: 4 µg/mL (≈ 17.2 µM)
  MIC90: > 128 µg/mL
Salmonella spp. [1]; Salmonella spp.
  Non-susceptibility rate: 27%
Salmonella spp. [1]; Salmonella spp. (n = 106)
  % Susceptible: 73%
Hafnia alvei [2]; H. alvei
  Non-susceptibility rate: 0%
Hafnia alvei [2]; Hafnia alvei
  MIC50: 2 µg/mL (≈ 8.61 µM)
  MIC90: 2 µg/mL (≈ 8.61 µM)
Hafnia alvei [2]; Hafnia alvei (n = 32)
  % Susceptible: 100%
  MIC Range: 1 to 2 µg/mL
Yersinia enterocolitica [3]; Y. enterocolitica
  Non-susceptibility rate: 4.5%
Yersinia enterocolitica [3]; Yersinia enterocolitica
  MIC50: 2 µg/mL (≈ 8.61 µM)
  MIC90: 2 µg/mL (≈ 8.61 µM)
Yersinia enterocolitica [3]; Yersinia enterocolitica (n = 22)
  % Susceptible: 95.5%
Shigella spp. [4]; Shigella spp.
  Non-susceptibility rate: 0%
Shigella spp. [4]; Shigella spp. (n = 21)
  % Susceptible: 100%
  MIC50: 1 µg/mL (≈ 4.31 µM)
  MIC90: 2 µg/mL (≈ 8.61 µM)
  MIC Range: 1 to 2 µg/mL
Aeromonas spp. [5]; Aeromonas
  MIC50: 0.12 µg/mL (≈ 0.517 µM)
  MIC90: 0.25 µg/mL (≈ 1.08 µM)
Aeromonas spp. [5]; Aeromonas spp.
  Non-susceptibility rate: 6.25% and 6.3%
Aeromonas spp. [5]; Aeromonas spp. (n = 16)
  % Susceptible: 93.75%
Campylobacter jejuni [6]; C. jejuni
  Non-susceptibility rate: 69.24%
Campylobacter jejuni [6]; Campylobacter jejuni
  MIC50: > 128 µg/mL
  MIC90: > 128 µg/mL
Campylobacter jejuni [6]; Campylobacter jejuni (n=91)
  % Susceptible: 30.76%
Salmonella spp. [7]
  MIC: > 128 mg/L
Salmonella spp. [7]; S. hadar(2), isolates with MICs for ciprofloxacin ≥[…]
  MIC: >128 mg/L
Salmonella spp. [7]; Salmonella
  MIC: > 128 mg/L
Salmonella spp. [7]; Salmonella spp.
  Rates of non-susceptible microorganisms: 27%
Salmonella spp. [7]; Salmonella, read-out: MIC (mg/L) 50%
  MIC: 4 mg/L (≈ 17.2 µM)
Salmonella spp. [7]; Salmonella, read-out: MIC (mg/L) 90%
  MIC: > 128 mg/L
Hafnia alvei [8]; [13]
  MIC: 1 to 2 mg/L (≈ 4.31 to 8.61 µM)
Hafnia alvei [8]; read-out: MIC (mg/L) 50%
  MIC: 2 mg/L (≈ 8.61 µM)
Hafnia alvei [8]; read-out: MIC (mg/L) 90%
  MIC: 2 mg/L (≈ 8.61 µM)
Yersinia enterocolitica [9]
  Rates of non-susceptible microorganisms: 5%
Yersinia enterocolitica [9]; read-out: MIC (mg/L) 50%
  MIC: 2 mg/L (≈ 8.61 µM)
Yersinia enterocolitica [9]; read-out: MIC (mg/L) 90%
  MIC: 2 mg/L (≈ 8.61 µM)
Shigella spp. [10]; [13]
  MIC: 1 to 2 mg/L (≈ 4.31 to 8.61 µM)
Shigella spp. [10]; read-out: MIC (mg/L) 50%
  MIC: 1 mg/L (≈ 4.31 µM)
Shigella spp. [10]; read-out: MIC (mg/L) 90%
  MIC: 2 mg/L (≈ 8.61 µM)
Aeromonas spp. [11]; Aeromonas spp.
  Rates of non-susceptible microorganisms: 6%
Aeromonas spp. [11]; read-out: MIC (mg/L) 50%
  MIC: 0.12 mg/L (≈ 0.517 µM)
Aeromonas spp. [11]; read-out: MIC (mg/L) 90%
  MIC: 0.25 mg/L (≈ 1.08 µM)
Campylobacter jejuni [12]; read-out: MIC (mg/L) 50%
  MIC: > 128 mg/L
Campylobacter jejuni [12]; read-out: MIC (mg/L) 90%
  MIC: > 128 mg/L

## CO[C@@]1(NC(=O)Cc2cccs2)C(=O)N2C(C(=O)O)=C(COC(N)=O)CS[C@@H]21 [Cefoxitin]
Escherichia coli; Escherichia coli
  MIC50: 4 µg/mL (≈ 9.36 µM)
  MIC90: 16 µg/mL (≈ 37.4 µM)
Escherichia coli
  MIC Range: 2 to 32 µg/mL
Klebsiella pneumoniae
  MIC50: 4 µg/mL (≈ 9.36 µM)
  MIC90: 16 µg/mL (≈ 37.4 µM)
Proteus mirabilis
  MIC50: 4 µg/mL (≈ 9.36 µM)
  MIC90: 16 µg/mL (≈ 37.4 µM)
Enterobacter spp.; read-out: MIC50
  MIC50: > 64 µg/mL
Enterobacter spp.; read-out: MIC90
  MIC90: > 64 µg/mL
Acinetobacter spp.
  MIC50: > 64 µg/mL
  MIC90: > 64 µg/mL
